Experimental data published in ChEMBL document CHEMBL3885861, “Open TG-GATES”.

Species: Rattus norvegicus
Test: Open TG-GATES - Regimen: Daily Repeat
Format: toxicity, organism-based, Sprague-Dawley
Design: regimen Daily Repeat, gender Male, age 6 weeks
Details: in vivo, po, route gavage; for Bas / Eos / Fbg / Ht / MCHC / Mono / Plat / RBC / Ret / WBC / MCV: tissue Blood; for KIDNEY_L / KIDNEY_R / KIDNEY_TOTAL: tissue Kidney; for ALT / AST / CRE / DBIL / GLC / IP / K / LDH / PL / RALB / TBIL / TC / TG / TP / gamma-GTP: tissue Plasma
[1] = 100 mg/kg, 72 h, dose level Middle, time 3 day
[2] = 100 mg/kg, […], dose level Middle, time 7 day
[3] = 100 mg/kg, […], dose level Middle, time 14 day
[4] = 100 mg/kg, […], dose level Middle, time 28 day
[5] = 1000 mg/kg, 72 h, dose level High, time 3 day
[6] = 1000 mg/kg, […], dose level High, time 7 day
[7] = 1000 mg/kg, […], dose level High, time 14 day
[8] = 1000 mg/kg, […], dose level High, time 28 day

Question: What does the source list for `CC(C)OC(=O)C(C)(C)Oc1ccc(C(=O)c2ccc(Cl)cc2)cc1` [FENOFIBRATE]?
Answer: TERMINAL_BW [1]: 219 g; Bas [1]: 0.2%; Eos [1]: 1%; Fbg [1]: 242.4 mg/dL; Ht [1]: 40.5%; MCHC [1]: 32.9%; Mono [1]: 3.4%; Plat [1]: 110.8 x10_4/uL; RBC [1]: 619.6 x10_4/ul; Ret [1]: 6.7%; WBC [1]: 92.3 x10_2/uL; KIDNEY_L [1]: 1 g; KIDNEY_R [1]: 1 g; KIDNEY_TOTAL [1]: 1.9 g; ALT [1]: 52 IU/L; AST [1]: 77.6 IU/L; CRE [1]: 0.2 mg/dL; DBIL [1]: 0.012 mg/dL; GLC [1]: 184.2 mg/dL; IP [1]: 7.5 mg/dL; K [1]: 4.1 meq/L; LDH [1]: 90 IU/L; PL [1]: 118.6 mg/dL; RALB [1]: 2.6 g/dL; TBIL [1]: 0.034 mg/dL; TC [1]: 58.6 mg/dL; TG [1]: 41.6 mg/dL; TP [1]: 5.5 g/dL; gamma-GTP [1]: 1.2 IU/L; TERMINAL_BW [2]: 251.5 g; TERMINAL_BW [3]: 311 g; TERMINAL_BW [4]: 352.5 g; Bas [2]: 0.2%; Eos [2]: 1%; Fbg [2]: 232.2 mg/dL; Ht [2]: 40.3%; MCHC [2]: 32.4%; Mono [2]: 4%; Plat [2]: 127.1 x10_4/uL; RBC [2]: 650.8 x10_4/ul; Ret [2]: 5.7%; WBC [2]: 98.5 x10_2/uL; Bas [3]: 0%; Eos [3]: 0.8%; Fbg [3]: 230 mg/dL; Ht [3]: 40.9%; MCHC [3]: 32.9%; Mono [3]: 3.2%; Plat [3]: 131.7 x10_4/uL; RBC [3]: 660.8 x10_4/ul; Ret [3]: 5.1%; WBC [3]: 106.3 x10_2/uL; Bas [4]: 0.8%; Eos [4]: 1.2%; Fbg [4]: 207.2 mg/dL; Ht [4]: 44.3%; MCHC [4]: 33.6%; MCV [4]: 56.8 fL; Mono [4]: 3.2%; Plat [4]: 107.6 x10_4/uL; RBC [4]: 780.8 x10_4/ul; Ret [4]: 2.4%; WBC [4]: 148.1 x10_2/uL; KIDNEY_L [2]: 1.1 g; KIDNEY_R [2]: 1.1 g; KIDNEY_TOTAL [2]: 2.2 g; KIDNEY_L [3]: 1.3 g; KIDNEY_R [3]: 1.3 g; KIDNEY_TOTAL [3]: 2.6 g; KIDNEY_L [4]: 1.4 g; KIDNEY_R [4]: 1.4 g; KIDNEY_TOTAL [4]: 2.8 g; ALT [2]: 41.2 IU/L; AST [2]: 67.8 IU/L; CRE [2]: 0.2 mg/dL; DBIL [2]: 0.012 mg/dL; GLC [2]: 186.8 mg/dL; IP [2]: 8 mg/dL; K [2]: 4.3 meq/L; LDH [2]: 126.2 IU/L; PL [2]: 119.8 mg/dL; RALB [2]: 2.8 g/dL; TBIL [2]: 0.028 mg/dL; TC [2]: 55.6 mg/dL; TG [2]: 47.4 mg/dL; TP [2]: 5.9 g/dL; gamma-GTP [2]: 1 IU/L; ALT [3]: 43 IU/L; AST [3]: 69 IU/L; CRE [3]: 0.2 mg/dL; DBIL [3]: 0.014 mg/dL; GLC [3]: 192.8 mg/dL; IP [3]: 6.9 mg/dL; K [3]: 4.1 meq/L; LDH [3]: 106.8 IU/L; PL [3]: 135.2 mg/dL; RALB [3]: 2.8 g/dL; TBIL [3]: 0.026 mg/dL; TC [3]: 57.8 mg/dL; TG [3]: 78 mg/dL; TP [3]: 6 g/dL; gamma-GTP [3]: 1 IU/L; ALT [4]: 47.6 IU/L; AST [4]: 69.2 IU/L; CRE [4]: 0.2 mg/dL; DBIL [4]: 0.016 mg/dL; GLC [4]: 179 mg/dL; IP [4]: 7.6 mg/dL; K [4]: 3.8 meq/L; LDH [4]: 110.8 IU/L; PL [4]: 129.8 mg/dL; RALB [4]: 3 g/dL; TBIL [4]: 0.036 mg/dL; TC [4]: 55 mg/dL; TG [4]: 60.2 mg/dL; TP [4]: 6.5 g/dL; gamma-GTP [4]: 1.2 IU/L; TERMINAL_BW [5]: 215.9 g; Bas [5]: 0.4%; Eos [5]: 1%; Fbg [5]: 208.2 mg/dL; Ht [5]: 39.5%; MCHC [5]: 33%; Mono [5]: 3.6%; Plat [5]: 105.8 x10_4/uL; RBC [5]: 610.6 x10_4/ul; Ret [5]: 5.6%; WBC [5]: 91.7 x10_2/uL; KIDNEY_L [5]: 0.9 g; KIDNEY_R [5]: 1 g; KIDNEY_TOTAL [5]: 1.9 g; ALT [5]: 51.4 IU/L; AST [5]: 83.8 IU/L; CRE [5]: 0.2 mg/dL; DBIL [5]: 0.022 mg/dL; GLC [5]: 176.8 mg/dL; IP [5]: 7.3 mg/dL; K [5]: 4.3 meq/L; LDH [5]: 105.8 IU/L; PL [5]: 129.2 mg/dL; RALB [5]: 2.6 g/dL; TBIL [5]: 0.048 mg/dL; TC [5]: 57 mg/dL; TG [5]: 33.6 mg/dL; TP [5]: 5.4 g/dL; gamma-GTP [5]: 1 IU/L; TERMINAL_BW [6]: 248.7 g; TERMINAL_BW [7]: 269.5 g; TERMINAL_BW [8]: 320.8 g; Bas [6]: 0%; Eos [6]: 1%; Fbg [6]: 222.2 mg/dL; Ht [6]: 39.1%; MCHC [6]: 32.3%; Mono [6]: 3.4%; Plat [6]: 147.3 x10_4/uL; RBC [6]: 612.2 x10_4/ul; Ret [6]: 5.8%; WBC [6]: 113.4 x10_2/uL; Bas [7]: 0.4%; Eos [7]: 1%; Fbg [7]: 192.8 mg/dL; Ht [7]: 39.9%; MCHC [7]: 33.3%; MCV [7]: 58.7 fL; Mono [7]: 3.4%; Plat [7]: 135.5 x10_4/uL; RBC [7]: 679.4 x10_4/ul; Ret [7]: 5.1%; WBC [7]: 149.7 x10_2/uL; Bas [8]: 0.4%; Eos [8]: 1.2%; Fbg [8]: 194.2 mg/dL; Ht [8]: 40.9%; MCHC [8]: 33.4%; MCV [8]: 57.2 fL; Mono [8]: 3.4%; Plat [8]: 117.4 x10_4/uL; RBC [8]: 716 x10_4/ul; Ret [8]: 3.9%; WBC [8]: 132.1 x10_2/uL; KIDNEY_L [6]: 1.1 g; KIDNEY_R [6]: 1.1 g; KIDNEY_TOTAL [6]: 2.2 g; KIDNEY_L [7]: 1.2 g; KIDNEY_R [7]: 1.2 g; KIDNEY_TOTAL [7]: 2.4 g; KIDNEY_L [8]: 1.4 g; KIDNEY_R [8]: 1.4 g; KIDNEY_TOTAL [8]: 2.8 g; ALT [6]: 45.8 IU/L; AST [6]: 80.6 IU/L; CRE [6]: 0.2 mg/dL; DBIL [6]: 0.018 mg/dL; GLC [6]: 178.8 mg/dL; IP [6]: 7.4 mg/dL; K [6]: 4.4 meq/L; LDH [6]: 122.6 IU/L; PL [6]: 142 mg/dL; RALB [6]: 3 g/dL; TBIL [6]: 0.034 mg/dL; TC [6]: 65.8 mg/dL; TG [6]: 38 mg/dL; TP [6]: 6.1 g/dL; gamma-GTP [6]: 1 IU/L; ALT [7]: 70 IU/L; AST [7]: 160.6 IU/L; CRE [7]: 0.2 mg/dL; DBIL [7]: 0.022 mg/dL; GLC [7]: 170.2 mg/dL; IP [7]: 6.6 mg/dL; K [7]: 4.1 meq/L; LDH [7]: 226.2 IU/L; PL [7]: 138 mg/dL; RALB [7]: 2.9 g/dL; TBIL [7]: 0.052 mg/dL; TC [7]: 50.6 mg/dL; TG [7]: 45.4 mg/dL; TP [7]: 6 g/dL; gamma-GTP [7]: 1 IU/L; ALT [8]: 55.8 IU/L; AST [8]: 132 IU/L; CRE [8]: 0.2 mg/dL; DBIL [8]: 0.024 mg/dL; GLC [8]: 176 mg/dL; IP [8]: 7.3 mg/dL; K [8]: 3.7 meq/L; LDH [8]: 205.2 IU/L; PL [8]: 139.8 mg/dL; RALB [8]: 2.9 g/dL; TBIL [8]: 0.06 mg/dL; TC [8]: 62.4 mg/dL; TG [8]: 47.6 mg/dL; TP [8]: 6.2 g/dL; gamma-GTP [8]: 1.2 IU/L
